Measured values published in patent publication US20240358693A1, “METHODS OF TREATING PAIN” (Aisa Pharma, Inc., priority 2023, published 2024).

Test system: participants with SSc-RP
Test: Average severity of weekly RP attacks (VAS 0-10 cm scale)
Format: in vivo, human
Excerpt: The absolute change in average severity of weekly RP attacks (VAS 0-10 cm scale) from baseline to the end of each Dosing Period was and will be a secondary outcome variable. The sponsor-developed participant-informed diary will be used to record data. Average severity of weekly RP attacks is defined as the total severity scores of RP attacks divided by total number of RP attacks within the last 7 days of each dosing period. Total severity scores of RP attacks during the last 7 days of screening period divided by the total number of RP attacks will be used as baseline for the analysis of all periods. The variable will be calculated similar to frequency data as before.

[1] = Excluding Outliers, Tadalafil 5 mg, second Baseline RCS subgroup block (not named), ITT Part A
[2] = Excluding Outliers, Tadalafil 5 mg, second Baseline RCS subgroup block (not named), ITT Part A, score 0-10
[3] = Tadalafil 5 mg, n=1, Excluding Outliers, ITT Population - Part A
[4] = Tadalafil 5 mg, n=2, ITT Population - Part A
[5] = Tadalafil 5 mg, n=2, by Baseline RCS, second subgroup, ITT Population - Part A
[6] = Tadalafil 5 mg, Excluding Outliers, ITT Population - Part A
[7] = Tadalafil 5 mg, Excluding Outliers, by Baseline RCS, second subgroup, ITT Population - Part A
[8] = Tadalafil 5 mg, ITT Population - Part A
[9] = Tadalafil 5 mg, second Baseline RCS subgroup block (not named), ITT Part A
[10] = Tadalafil 5 mg, second Baseline RCS subgroup block (not named), ITT Part A, score 0-10

CN1CC(=O)N2[C@H](c3ccc4c(c3)OCO4)c3[nH]c4ccccc4c3C[C@@H]2C1=O [Tadalafil, tadalafil]
Average Severity of Weekly RP Attacks (All Attacks), Percent Change from Baseline, Mean [1]: −20.69% | Average Severity of Weekly RP Attacks (All Attacks), Percent Change from Baseline, Median [1]: −20.69% | Average Severity of Weekly RP Attacks (All Attacks), Change from Baseline, Mean [2]: −1.19 | Average Severity of Weekly RP Attacks (All Attacks), Change from Baseline, Median [2]: −1.19 | Average Severity of Weekly RP Attacks (All Attacks), Mean [2]: 4.56 | Average Severity of Weekly RP Attacks (All Attacks), Median [2]: 4.56 | Average Severity (0-10) of Weekly Symptomatic RP Attacks, Mean [3]: 4.67 | Average Severity (0-10) of Weekly Symptomatic RP Attacks, Median [3]: 4.67 | Average Severity of Weekly Symptomatic RP Attacks, Change from Baseline, Mean [3]: −1.32 | Average Severity of Weekly Symptomatic RP Attacks, Change from Baseline, Median [3]: −1.32 | Average Severity of Weekly Symptomatic RP Attacks, Percent Change from Baseline, Mean [3]: −22.01% | Average Severity of Weekly Symptomatic RP Attacks, Percent Change from Baseline, Median [3]: −22.01% | Average Severity (0-10) of Weekly Symptomatic RP Attacks, Mean [4]: 7.08 | Average Severity (0-10) of Weekly Symptomatic RP Attacks, Median [4]: 7.08 | Average Severity of Weekly Symptomatic RP Attacks, Change from Baseline, Mean [4]: −0.60 | Average Severity of Weekly Symptomatic RP Attacks, Change from Baseline, Median [4]: −0.60 | Average Severity of Weekly Symptomatic RP Attacks, Percent Change from Baseline, Mean [4]: −10.43% | Average Severity of Weekly Symptomatic RP Attacks, Percent Change from Baseline, Median [4]: −10.43% | Average Severity (0-10) of Weekly Symptomatic RP Attacks, Mean [5]: 7.08 | Average Severity (0-10) of Weekly Symptomatic RP Attacks, Median [5]: 7.08 | Average Severity of Weekly Symptomatic RP Attacks, Change from Baseline, Mean [5]: −0.60 | Average Severity of Weekly Symptomatic RP Attacks, Change from Baseline, Median [5]: −0.60 | Average Severity of Weekly Symptomatic RP Attacks, Percent Change from Baseline, Mean [5]: −10.43% | Average Severity of Weekly Symptomatic RP Attacks, Percent Change from Baseline, Median [5]: −10.43% | Average Severity of Weekly RP Attacks (All Attacks), Change from Baseline, Mean [6]: −1.19 | Average Severity of Weekly RP Attacks (All Attacks), Change from Baseline, Median [6]: −1.19 | Average Severity of Weekly RP Attacks (All Attacks), Mean [6]: 4.56 | Average Severity of Weekly RP Attacks (All Attacks), Median [6]: 4.56 | Average Severity of Weekly RP Attacks (All Attacks), Percent Change from Baseline, Mean [6]: −20.69% | Average Severity of Weekly RP Attacks (All Attacks), Percent Change from Baseline, Median [6]: −20.69% | Average Severity of Weekly Symptomatic RP Attacks (Mean) [7]: 4.67 | Average Severity of Weekly Symptomatic RP Attacks (Median) [7]: 4.67 | Average Severity of Weekly Symptomatic RP Attacks, Change from Baseline, Mean [7]: −1.32 | Average Severity of Weekly Symptomatic RP Attacks, Change from Baseline, Median [7]: −1.32 | Average Severity of Weekly Symptomatic RP Attacks, Percent Change from Baseline, Mean [7]: −22.01% | Average Severity of Weekly Symptomatic RP Attacks, Percent Change from Baseline, Median [7]: −22.01% | Average Severity of Weekly RP Attacks (All Attacks), Change from Baseline, Mean [8]: −0.47 | Average Severity of Weekly RP Attacks (All Attacks), Change from Baseline, Median [8]: −0.47 | Average Severity of Weekly RP Attacks (All Attacks), Mean [8]: 7.02 | Average Severity of Weekly RP Attacks (All Attacks), Median [8]: 7.02 | Average Severity of Weekly RP Attacks (All Attacks), Percent Change from Baseline, Mean [8]: −8.97% | Average Severity of Weekly RP Attacks (All Attacks), Percent Change from Baseline, Median [8]: −8.97% | Average Severity of Weekly RP Attacks (All Attacks), Percent Change from Baseline, Mean [9]: −8.97% | Average Severity of Weekly RP Attacks (All Attacks), Percent Change from Baseline, Median [9]: −8.97% | Average Severity of Weekly RP Attacks (All Attacks), Change from Baseline, Mean [10]: −0.47 | Average Severity of Weekly RP Attacks (All Attacks), Change from Baseline, Median [10]: −0.47 | Average Severity of Weekly RP Attacks (All Attacks), Mean [10]: 7.02 | Average Severity of Weekly RP Attacks (All Attacks), Median [10]: 7.02 | reduction in severity (more severe disease at baseline (RCS>5.0), n=2 per treatment): 6.3%
